According to patent publication US20040123348A1, “Method for producing a plant with a high-growth rate” (priority 2002, published 2004):

How the values were obtained:
[1] = test system: OsHDAC1 transcription product; assay: Effect of ABA treatment on expression of OsHDAC1 transcription product in leaves of Ai::OsHDAC1 rice plant; assay type: cell-based; conditions: 20 μM ABA, MS medium
Protocol: While leaves of Ai::OsHDAC1 rice plant produced by above Example 5 was incubated in MS medium with or without 20 μM ABA, a total RNA was isolated from leaves at regular intervals to examine the expression level of OsHDAC1 transcription product. As the result, it was identified that the expression of the transcription product reaches at the maximum level one hour after ABA treatment and rapidly decreases after 6 hours. Then, callus cells, leaves and roots of rice plant were incubated in MS medium with or without 20 μM ABA for one hour, and a total RNA was extracted. […] Further, the same result could be confirmed from Western blot analysis of OsHDAC1 protein.

untransformed rice plant = assay: Phenotype and growth in MS medium with 20 μM ABA, untransformed rice plant; assay type: in vivo; conditions: 2 weeks
Protocol: (§1) In order to investigate the effect of overexpression of OsHDAC1 on the phenotype and growth of Ai::OsHDAC1 rice plant, Ai::OsHDAC1 rice plant was incubated as the first generation and then, young seedlings or calluses at the second generation were transferred to MS medium with or without 20 μM ABA and incubated for 2 weeks. After incubation, the whole shape of rice plant, and leaves, collars and roots were observed. As the control group, untransformed rice plant was also observed. FIGS. 6a, 6b, 6c and 6d are photographs showing the growth and morphological change of Ai::OsHDAC1 rice plant, the change in the growth of leaves, the change of collars and the change of roots, respectively. In each drawing, NT denotes untransformed rice plant and lanes 2, 3 and 4 in FIGS. 6b, 6c and 6d denote respective individuals of transformed Ai::OsHDAC1 rice plant.

Ai::OsHDAC1 rice plant = assay: Phenotype and growth in MS medium with 20 μM ABA, Ai::OsHDAC1 rice plant; assay type: in vivo; conditions: 2 weeks
Protocol: as §1

histone deacetylase = assay: Effect of tricostatin A (TSA) treatment on histone H4 acetylation, immunoblot of rice callus cells; assay type: cell-based; conditions: 1 μM TSA with 20 μM ABA, 1 to 6 hours
Protocol: Rice callus cells, leaves and roots were incubated in MS medium with (+) or without (−) 20 μM ABA for one hour, transferred to MS medium containing 20 μM ABA and 1 μM TSA, incubated for 1 to 6 hours and then subjected to TSA treatment. Next, about 0.1 g of rice tissues was pulverized, homogenized with a buffer solution containing 50 mM Tris-HCl (pH 8.0), 150 mM NaCl, 10% glycerol, 0.5% Triton X-100, 2 mM phenylmethanesulfonyl fluoride, 1 μg/ml aprotinine, 1 μg/ml pepstatin and 1 μg/ml leupeptin, and then incubated at 4° C. for one hour. After incubation, the mixed solution was centrifuged at 4° C. for 5 minutes, and the protein concentration was determined using Bradford solution (BioRad, USA). The protein extract was separated from 12% SDS gel, transferred to polyvinylidene difluoride (PVDF) membrane (Immobilon-P, Millipore), and then reacted with mouse HDAC1 (mHDAC1), histone H4 (H4), acetylated histone (AcH4), the secondary antibody wherein primary antibody to acetylated histone H4 (AcH4) (Upstate Biotechnology, USA) is combined with alkaline phosphatase. […] Thus, it was confirmed that the expression of tetra-acetylated histone H4 as reduced in Ai::OsHDAC1 rice plant is increased again by TSA treatment.

CC1=CC(=O)CC(C)(C)[C@@]1(O)/C=C/C(C)=C\C(=O)O [ABA, abscisic acid]
time after ABA treatment at which expression of the transcription product reaches the maximum level [1]: one | growth of untransformed plant in the presence of ABA (untransformed rice plant): inhibition of growth | growth of Ai::OsHDAC1 rice plant in the presence of ABA (Ai::OsHDAC1 rice plant): increase of growth

CC(/C=C/C(=O)NO)=C\[C@@H](C)C(=O)c1ccc(N(C)C)cc1 [TSA, tricostatin A]
total H4 after TSA treatment (histone deacetylase): substantially not changed | expression level of tetra-acetylated histone H4 after TSA treatment (histone deacetylase; both Ai::OsHDAC1 and untransformed rice plant callus cells): greatly increased
